Data on six compounds can be found in US10000483B2, “Bone marrow on X chromosome kinase (BMX) inhibitors and uses thereof” (Dana-Farber Cancer Institute, Inc., priority 2012, dated 2018).

The structures appear in SMILES notation. Several values for one entry are separate records, joined by “and”; a condition that tells them apart may be missing. Identical values can stand only once.

The target in experiment [1] is wild-type (WT) BMX (Homo sapiens (Human), UniProt P51813). The experiment in a line: IP kinase assay, BMX autophosphorylation. As to conditions: FIG. 15. The class given is biochemical. An excerpt:
FIG. 15 confirms that the potency of the BMX inhibitors is due to covalent binding to cysteine 496.

Experiment [2] deals with RV-1 cells. In words: Anti-proliferation assay for prostate cancer cells (CellTiter-Glo). In kind it is cell-based. A general note: ATP-based viability assays read luminescence as a measure of living cells.
Protocol: Data were normalized to control group (DMSO) and represented by the mean of at least two independent measurement with standard error <20%. GI50 were calculated using Prism 5.0 (GraphPad Software, San Diego, Calif.).
The target of experiment [3] is T1, BMX (Homo sapiens (Human), UniProt P51813). The experiment in a line: BMX protein levels in RV-1 cells. The class given is cell-based. As to conditions: 72 h treatment, 5 μM. An excerpt: Moreover, the depletion could be rescued upon stable overexpression of the C496S mutant BMX.
Experiment [4] has as its system OCI-Ly3 cells. In words: Cell proliferation analysis for WM and lymphoma cell lines (CellTiter-Glo). The class given is cell-based. As to conditions: Homo sapiens, 72 hours.
Protocol: (§2) Various cell lines were used including Waldenström's macroglobulinemia (WM) cell lines (BCWM.1, MWCL-1, RPCI-WM1) and B-cell lymphoma cell lines (OCI-Ly3, Ramos, OCI-Ly19). Cells were seeded into 384 well plates with the EL406 Combination Washer Dispenser (BioTek Instruments, Inc.) and inhibitor compounds were injected into the cells culture media with the JANUS Automated Workstation (PerkinElmer Inc.).
For experiment [5], the system named is MWCL-1 cells. Described as above. As to conditions: 72 hours. The class given is cell-based.
Protocol: as §2
In experiment [6] the test system is OCI-Ly19 cells. Described as above. As to conditions: Homo sapiens, 72 hours. The class given is cell-based.
Protocol: as §2
Experiment [7] relates to BCWM.1 cells. The description is as above. In kind it is cell-based. As to conditions: BCWM1; 72 hours.
Protocol: as §2
Experiment [8] relates to CD19+ B-cells from a Waldenstrom's macroglobulinemia patient. In words: Apoptosis analysis of primary patient cells (Annexin V/propidium iodide). The class given is cell-based, human. As to conditions: patient after six months of ibrutinib treatment; FIG. 22. How it is done:
Primary patient WM cells genotyped for MYD88 L265P, as well as MYD88 WT healthy donor CD19-selected peripheral blood mononuclear cells (PBMCs) were treated with and without inhibitor compounds. Cells were incubated at 37° C. with 0.01˜4 μM of an inhibitor compound of Formula (I) or (II) (e.g., 11-4). Apoptosis analysis was performed using Annexin V-FITC/Propidium iodide staining with the Apoptosis Detection Kit I (BD Pharmingen). 1×10^6/well cells were treated in 24 well plates for˜24 hours with inhibitor compounds or corresponding controls. A minimum of 10,000 events were acquired using a BD™ FACSCanto II flow cytometer and analyzed with BD FACS DIVA Software.

Experiment [9] relates to Ramos cells. In words: Cell proliferation analysis for WM and lymphoma cell lines (CellTiter-Glo). In kind it is cell-based. As to conditions: Homo sapiens, 72 hours.
Protocol: as §2
The target of experiment [10] is T1, BMX. The experiment in a line: Invitrogen Select Screening in vitro kinase assay. In kind it is biochemical.
Experiment [11] addresses mTOR (Homo sapiens (Human), UniProt P42345). In words: Invitrogen Select Screening in vitro kinase assay. In kind it is biochemical. An excerpt: (§1) The in vitro activity of compounds of Formula (I) and (II) in inhibiting BMX and other kinases were obtained using an Invitrogen Select Screening assay as known in the art. The IC50 values determined from this assay are shown below.

The target of experiment [12] is TEC (Homo sapiens (Human), UniProt P42680). In words: Invitrogen Select Screening in vitro kinase assay. In kind it is biochemical.
From the text: as §1

The target of experiment [13] is BLK (Homo sapiens (Human), UniProt P51451). The experiment in a line: Invitrogen Select Screening in vitro kinase assay. In kind it is biochemical.
From the text: as §1

Experiment [14] addresses BTK (Homo sapiens (Human), UniProt Q06187). In words: Invitrogen Select Screening in vitro kinase assay. The class given is biochemical.
In experiment [15] the target is JAK3 (Homo sapiens (Human), UniProt P52333). The experiment in a line: Invitrogen Select Screening in vitro kinase assay. The class given is biochemical.
The subject of experiment [16] is RV-1 cells. The experiment in a line: Combination of I-14 with MK2206, dose-response in RV-1 cells. As to conditions: with I-14.
The subject of experiment [17] is Bmx- MEF cells stably overexpressing BmxWT. The experiment in a line: Wound healing assay. The class given is cell-based, mouse. As to conditions: preincubated 4 h; leading edges at 0 and 9 h. Here is the method:
FIGS. 3A-B show the immunoblotting results where BMX (SiBMX) or control siRNA (SiCtrl) transfected LNCaP cells (FIG. 3A) or VCS2 cells (FIG. 3B) were serum starved for 72 h, serum was stimulated for the indicated times, and the whole cell lysates were immunoblotted. […] FIG. 3G is a bar graph showing the migrated distances where scratch wounds were introduced into confluent heterozygous for Bmx (Bmx^+/−), Bmx^+, or Bmx^− MEFs, and the leading edges were photographed at 0 and 9 h. The migrated distance was measured and normalized to #1 Bmx-group. Error bars depict standard error (SE) for three experiments (***: p<0.001). FIG. 3H is a bar graph showing the migrated distances where scratch wounds were introduced into confluent Bmx^− MEFs stably overexpressing BmxWT, BmxKD, or empty vector (EV), and the leading edges were photographed at 0 and 9 h. The migrated distance was measured and normalized to EV group. Error bar depict standard error (SE) for three independent experiments (*: p<0.05). FIG. 3I is a bar graph showing the migrated distances where Bmx^− MEF cells stably overexpressing BmxWT were preincubated with FAK inhibitor (PF562271) for 4 h. Scratch wounds were introduced into the cells, and the leading edges were photographed at 0 and 9 h. The migrated distance was measured and normalized to control group (Ctrl). […]

T1 sequence (P51813 whole entry): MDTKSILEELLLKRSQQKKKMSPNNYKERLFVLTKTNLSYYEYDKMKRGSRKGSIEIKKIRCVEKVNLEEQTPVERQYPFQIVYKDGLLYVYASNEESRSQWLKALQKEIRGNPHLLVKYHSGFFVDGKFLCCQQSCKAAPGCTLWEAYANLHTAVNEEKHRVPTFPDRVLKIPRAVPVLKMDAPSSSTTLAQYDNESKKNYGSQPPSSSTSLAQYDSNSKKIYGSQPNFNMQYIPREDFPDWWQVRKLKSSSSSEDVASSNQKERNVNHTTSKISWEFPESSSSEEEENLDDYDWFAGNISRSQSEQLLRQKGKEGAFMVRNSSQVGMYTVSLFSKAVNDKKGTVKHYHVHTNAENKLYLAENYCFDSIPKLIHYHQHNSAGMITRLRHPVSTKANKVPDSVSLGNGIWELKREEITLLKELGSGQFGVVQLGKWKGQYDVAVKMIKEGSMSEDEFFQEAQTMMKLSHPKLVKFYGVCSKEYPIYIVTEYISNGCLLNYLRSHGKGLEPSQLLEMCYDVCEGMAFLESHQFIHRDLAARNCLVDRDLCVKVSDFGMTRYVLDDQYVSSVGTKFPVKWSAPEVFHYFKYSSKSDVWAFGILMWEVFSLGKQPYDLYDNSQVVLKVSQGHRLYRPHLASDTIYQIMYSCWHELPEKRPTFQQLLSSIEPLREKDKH
TEC, sequence (P42680 whole entry): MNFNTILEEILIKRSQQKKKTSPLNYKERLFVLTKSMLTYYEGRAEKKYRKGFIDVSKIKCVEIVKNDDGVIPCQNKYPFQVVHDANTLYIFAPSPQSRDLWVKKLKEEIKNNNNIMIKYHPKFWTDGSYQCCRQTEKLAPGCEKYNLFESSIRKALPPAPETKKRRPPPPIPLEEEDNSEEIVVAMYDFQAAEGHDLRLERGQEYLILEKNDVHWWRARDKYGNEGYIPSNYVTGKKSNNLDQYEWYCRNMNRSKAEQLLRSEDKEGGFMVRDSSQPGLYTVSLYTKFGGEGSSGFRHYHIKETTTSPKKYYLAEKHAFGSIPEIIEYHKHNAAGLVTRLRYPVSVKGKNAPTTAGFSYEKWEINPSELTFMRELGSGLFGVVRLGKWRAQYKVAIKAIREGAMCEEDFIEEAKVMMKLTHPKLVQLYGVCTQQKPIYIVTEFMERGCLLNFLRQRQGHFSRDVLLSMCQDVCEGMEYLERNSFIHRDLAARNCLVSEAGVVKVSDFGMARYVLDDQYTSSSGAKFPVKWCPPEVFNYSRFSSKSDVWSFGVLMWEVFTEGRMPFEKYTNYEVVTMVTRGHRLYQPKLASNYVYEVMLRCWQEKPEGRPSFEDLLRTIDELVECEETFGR
JAK3, sequence (P52333 whole entry): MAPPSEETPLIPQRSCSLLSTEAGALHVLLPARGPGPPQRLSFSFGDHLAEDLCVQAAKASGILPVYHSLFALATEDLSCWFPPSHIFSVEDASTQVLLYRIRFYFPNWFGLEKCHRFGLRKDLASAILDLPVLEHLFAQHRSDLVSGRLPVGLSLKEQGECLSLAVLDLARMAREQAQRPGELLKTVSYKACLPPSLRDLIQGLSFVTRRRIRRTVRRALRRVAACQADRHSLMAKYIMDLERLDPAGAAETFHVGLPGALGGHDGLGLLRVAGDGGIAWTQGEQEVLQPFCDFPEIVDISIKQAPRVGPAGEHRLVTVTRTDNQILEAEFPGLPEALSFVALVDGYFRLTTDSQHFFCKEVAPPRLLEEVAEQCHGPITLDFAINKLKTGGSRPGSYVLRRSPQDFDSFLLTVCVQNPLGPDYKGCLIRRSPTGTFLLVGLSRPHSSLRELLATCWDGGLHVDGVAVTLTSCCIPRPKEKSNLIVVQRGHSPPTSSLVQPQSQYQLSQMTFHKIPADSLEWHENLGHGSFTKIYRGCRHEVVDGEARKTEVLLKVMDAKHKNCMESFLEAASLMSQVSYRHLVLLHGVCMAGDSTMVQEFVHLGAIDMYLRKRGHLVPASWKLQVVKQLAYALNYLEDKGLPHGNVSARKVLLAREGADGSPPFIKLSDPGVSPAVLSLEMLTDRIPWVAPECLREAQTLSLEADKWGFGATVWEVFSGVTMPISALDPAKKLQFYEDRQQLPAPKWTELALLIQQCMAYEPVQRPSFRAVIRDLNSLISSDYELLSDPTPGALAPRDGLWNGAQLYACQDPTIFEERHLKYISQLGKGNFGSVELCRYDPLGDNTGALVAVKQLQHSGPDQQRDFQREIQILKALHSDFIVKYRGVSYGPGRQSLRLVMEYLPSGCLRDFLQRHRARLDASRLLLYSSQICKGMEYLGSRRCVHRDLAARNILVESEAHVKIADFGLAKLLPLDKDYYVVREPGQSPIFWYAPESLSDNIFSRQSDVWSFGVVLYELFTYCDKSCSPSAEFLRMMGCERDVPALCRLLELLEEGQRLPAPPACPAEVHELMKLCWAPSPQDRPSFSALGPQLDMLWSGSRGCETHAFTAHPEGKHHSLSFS
BLK, sequence (P51451 whole entry): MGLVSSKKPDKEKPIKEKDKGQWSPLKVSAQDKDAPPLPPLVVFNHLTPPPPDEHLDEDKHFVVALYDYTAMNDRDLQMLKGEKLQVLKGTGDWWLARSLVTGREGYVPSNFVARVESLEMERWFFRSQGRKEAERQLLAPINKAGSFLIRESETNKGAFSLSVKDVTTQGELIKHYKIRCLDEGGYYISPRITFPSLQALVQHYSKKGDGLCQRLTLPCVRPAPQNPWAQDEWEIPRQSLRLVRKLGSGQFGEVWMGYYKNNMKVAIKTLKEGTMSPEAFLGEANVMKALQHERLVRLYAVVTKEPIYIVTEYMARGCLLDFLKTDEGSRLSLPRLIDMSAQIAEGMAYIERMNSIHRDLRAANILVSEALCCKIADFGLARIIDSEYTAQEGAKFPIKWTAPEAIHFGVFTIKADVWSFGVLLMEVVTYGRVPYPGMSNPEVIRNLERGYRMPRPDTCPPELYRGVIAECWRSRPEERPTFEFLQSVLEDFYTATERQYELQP
BTK, sequence (Q06187 whole entry): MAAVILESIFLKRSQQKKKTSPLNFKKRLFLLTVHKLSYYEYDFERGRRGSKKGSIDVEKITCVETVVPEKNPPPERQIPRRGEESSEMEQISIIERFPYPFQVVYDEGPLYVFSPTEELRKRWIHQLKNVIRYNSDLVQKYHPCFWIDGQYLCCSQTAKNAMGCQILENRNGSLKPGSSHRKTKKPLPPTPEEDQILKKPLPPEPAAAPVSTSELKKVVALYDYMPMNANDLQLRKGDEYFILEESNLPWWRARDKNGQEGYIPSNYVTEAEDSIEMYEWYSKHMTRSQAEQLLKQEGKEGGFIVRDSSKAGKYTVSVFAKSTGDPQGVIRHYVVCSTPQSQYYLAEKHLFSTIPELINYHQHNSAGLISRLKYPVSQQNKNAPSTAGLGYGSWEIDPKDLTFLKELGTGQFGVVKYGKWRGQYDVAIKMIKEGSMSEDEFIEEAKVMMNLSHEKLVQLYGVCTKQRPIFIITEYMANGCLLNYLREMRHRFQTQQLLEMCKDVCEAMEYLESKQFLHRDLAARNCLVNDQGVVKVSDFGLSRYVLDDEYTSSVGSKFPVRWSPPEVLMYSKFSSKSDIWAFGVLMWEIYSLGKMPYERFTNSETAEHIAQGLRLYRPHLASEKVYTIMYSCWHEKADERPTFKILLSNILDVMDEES
wild-type (WT) BMX, sequence (P51813 whole entry): as the sequence (P51813 whole entry) above

On to `CCC(=O)Nc1cc(-n2c(=O)ccc3cnc4ccc(-c5ccc(NS(C)(=O)=O)cc5)cc4c32)ccc1C` [I-14R], for which the “concentration inhibiting autophosphorylation of wild-type BMX” value in [1] was > 10,000 nM. Moreover, the “concentration with antiproliferative effects against RV-1 cells” value in experiment [2] was ≥ 10 µM. In addition, the “BMX protein levels in RV-1 cells” value in experiment [3] is recorded as “not”.

`C=CC(=O)N1CCc2ccc(-n3c(=O)ccc4cnc5ccc(-c6cnn(C)c6)cc5c43)cc21` [II-4]: the EC50 (as a rule, the concentration that produces a half-maximal response) in experiment [4] came out at 190 nM; in experiment [5] it was 190 nM; in [6], 30 nM; in experiment [7], 120 nM. For the same compound, the “killing of ex vivo CD19+ B-cells” value in experiment [8] was “effectively killed ex vivo cells”.

Regarding `C=CC(=O)N1CCc2ccc(-n3c(=O)ccc4cnc5ccc(-c6ccc(N)nc6)cc5c43)cc21` [II-13], the EC50 in [9] is 1350 nM; in experiment [4] it was 1670 nM; in experiment [5] it was 2470 nM; in experiment [6], 100 nM; in [7], 770 nM. For the same compound, the IC50 (usually the midpoint of a concentration-inhibition curve) in experiment [10] was 13.3 nM and 13 nM; in [11] it was 98 nM; in experiment [12], 27 nM; in experiment [13], 300 nM; in [14], 6 nM; in experiment [15], 5640 nM.

As to `C=CC(=O)N1CCc2ccc(-n3c(=O)ccc4cnc5ccc(-c6cn[nH]c6)cc5c43)cc21` [II-14], the EC50 in [9] was determined as 360 nM; in experiment [4] it was 500 nM; in [5] it was 650 nM; in experiment [6] it was 160 nM; in experiment [7], 320 nM. Further, the IC50 was 8.75 nM and 9 nM in experiment [10]; 209 nM in experiment [11]; 57 nM in [12]; 247 nM in experiment [13]; 12 nM in [14]; 2150 nM in experiment [15].

As to `NC1(c2ccc(-c3nc4ccn5c(=O)[nH]nc5c4cc3-c3ccccc3)cc2)CCC1` [MK2206], in [16], the “MK2206 concentration that potentiates the antiproliferative activity of I-14” value is on record as ≤ 25 nM.

As for `CN(c1ncccc1CNc1nc(Nc2ccc3c(c2)CC(=O)N3)ncc1C(F)(F)F)S(C)(=O)=O` [PF562271], the “stimulatory effect of BmxWT on wound healing migration” value in [17] is recorded as “blocked”.
